Measurements taken from the supplement of paper PMC11208160.

Experiment: recombinant UMI read abundance after kanamycin selection (control-corrected) (log10(CPM+1)); higher = more efficient recombination; extreme values may be limits of the assay; sequences stand for … in AGTGCAGAGAAAATCGGCCAGTTTTCTCTGCCTGCAGTCCGCATGCCGTGGGACCCCTTGGGTTCTAACCTGTTGCCTAGATTTATGCAGCGGACTGCCTTTCTCCCAAAGTGATAAACCGG…AGGTTGGTTTCACT; site = the 11-nt donor
In short: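 Pooled Escherichia coli screen of donor and donor-binding-loop pairs for the IS621 bridge recombinase. Each pair sits with a 12-nt UMI on a plasmid carrying a promoterless kanamycin gene. The library was co-electroporated with a target plasmid encoding a fixed target and T7-inducible recombinase, then plated with IPTG (0.07 mM) plus kanamycin, or unselected, each in two replicates. Recombinant UMIs were PCR-amplified across the donor–target junction and sequenced. Counts became CPM, averaged over replicates, scaled by control-derived factors and reported as log10(CPM+1).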

Row | Sequence | recombinant UMI read abundance (log10)
1 | GCTTGCCCATGGACCGGTTTTCCCGGTAATCCGTATTTGAT (site GCTTGCCCTTT) | 0.0171
2 | GCTTGCCCATGGACCGGTTTTCCCGGTAATCCGTATTTGAT (site GCTTGCGCTAT) | 0.0038
3 | GCTTGCCCATGGACCGGTTTTCCCGGTAATCCGTATTTGAT (site GCTTGCTCTAT) | 0.571
4 | GCTTGCCCATGGACCGGTTTTCCCGGTAATCCGTATTTGAT (site GCTTGGCCTAT) | 0.0246
5 | GCTTGCCCATGGACCGGTTTTCCCGGTAATCCGTATTTGAT (site GCTTGTCCTAT) | 0.00271
6 | GCTTGCCCATGGACCGGTTTTCCCGGTAATCCGTATTTGAT (site GCTTTCCCTAT) | 0
7 | GCTTGCCCATGGACCGGTTTTCCCGGTAATCCGTATTTGAT (site GGTTGCCCTAT) | 0.0122
8 | GCTTGCCCATGGACCGGTTTTCCCGGTAATCCGTATTTGAT (site GTTTGCCCTAT) | 0.00461
9 | GCTTGCCCATGGACCGGTTTTCCCGGTAATCCGTATTTGAT (site TCTTGCCCTAT) | 0.0164
10 | GCTTGCGCATGGACCGGTTTTCCCGGTAATCCGTATTTGAT (site GCTTGCACTAT) | 0.734
11 | GCTTGCGCATGGACCGGTTTTCCCGGTAATCCGTATTTGAT (site GCTTGCCCTAT) | 0.00863
12 | GCTTGCGCATGGACCGGTTTTCCCGGTAATCCGTATTTGAT (site GCTTGCGCTAT) | 1.72
13 | GCTTGCGCATGGACCGGTTTTCCCGGTAATCCGTATTTGAT (site GCTTGCTCTAT) | 0
14 | GGAACCCCATGGACCGGTTTTCCCGGTAATCCGTATTTGTC (site GGAACCCCTGA) | 0.334
15 | GGAAGCACATGGACCGGTTTTCCCGGTAATCCGTATTTGTG (site GGAAGCACTCA) | 1.4
16 | GGAATTCCATGGACCGGTTTTCCCGGTAATCCGTATTTGCA (site GGAATTCCTTG) | 0

Row | Sequence | recombinant UMI read abundance (log10)
17 | GGACCACCATGGACCGGTTTTCCCGGTAATCCGTATTTGCG (site GGACCACCTCG) | 0.0308
18 | GGACGCTCATGGACCGGTTTTCCCGGTAATCCGTATTTGAG (site GGACGCTCTCT) | 1.55
19 | GGACGTCCATGGACCGGTTTTCCCGGTAATCCGTATTTGCC (site GGACGTCCTGG) | 1.75
20 | GGACTAGCATGGACCGGTTTTCCCGGTAATCCGTATTTGCG (site GGACTAGCTCG) | 2.05
21 | GGACTCACATGGACCGGTTTTCCCGGTAATCCGTATTTGCA (site GGACTCACTTG) | 2.37
22 | GGAGCCCCATGGACCGGTTTTCCCGGTAATCCGTATTTGCG (site GGAGCCCCTCG) | 0.00647
23 | GGAGCGACATGGACCGGTTTTCCCGGTAATCCGTATTTGGA (site GGAGCGACTTC) | 0.237
24 | GGAGCGGCATGGACCGGTTTTCCCGGTAATCCGTATTTGGT (site GGAGAGGCTAC) | 0
25 | GGAGCGGCATGGACCGGTTTTCCCGGTAATCCGTATTTGGT (site GGAGCGGCTAC) | 0.387
26 | GGAGCGGCATGGACCGGTTTTCCCGGTAATCCGTATTTGGT (site GGAGGGGCTAC) | 0.00705
27 | GGAGCGGCATGGACCGGTTTTCCCGGTAATCCGTATTTGGT (site GGAGTGGCTAC) | 0.101
28 | GGAGGTTCATGGACCGGTTTTCCCGGTAATCCGTATTTGAA (site GGAGGTTCTTT) | 1.66
29 | GGAGTGCCATGGACCGGTTTTCCCGGTAATCCGTATTTGGT (site GGAGTGACTAC) | 0.00343
30 | GGAGTGCCATGGACCGGTTTTCCCGGTAATCCGTATTTGGT (site GGAGTGCCTAC) | 0.0291
31 | GGAGTGCCATGGACCGGTTTTCCCGGTAATCCGTATTTGGT (site GGAGTGGCTAC) | 0.00926
32 | GGAGTGCCATGGACCGGTTTTCCCGGTAATCCGTATTTGGT (site GGAGTGTCTAC) | 1.21
